In patent publication US20090197853A1, “METHODS AND COMPOSITIONS OF TREATING CANCER” (priority 2005, published 2009):
“Also recorded” adds a separate entry of the source. Starred links: 1 amine or outer side, 2 acyl side, 3 side chain; linkers in the order of their positions; H or OH if unused. Positions of bridges follow the written chain, without caps; N, C: chain ends. Non-standard residues stand in square brackets, D forms with d. Residues, ends and D or L forms follow the SMILES beside them. Chains are numbered I, II in the order given. Actinocin(9to1) = Cc1c2oc3c(C)ccc(C(=O)[*:1])c3nc-2c(C(=O)[*:2])c(N)c1=O; NMeV = CN[C@H](C(=O)O)C(C)C; Sar = CNCC(=O)O

Assays:
HIF-1α = HIF-1α sandwich ELISA, Ramos; assay type: cell-based; details: four hours
Method: Methods: Total HIF-1α protein was detected by sandwich ELISA using the DuoSet IC™ HIF-1α ELISA kit obtained from R&D Systems (Minneapolis, Minn.). All incubations were carried out at ambient temperature. Briefly, 96-well plates were coated with HIF-1α capture antibody overnight prior to blocking with 5% BSA in wash buffer. Protein lysates (50 μg protein per well prepared according to the manufacturer's instructions) were added for 2 hours, whereupon plates were washed and a biotinylated detection antibody specific for HIF-1α was added. A streptavidin-horseradish peroxidase format was used for detection. The optical density at 450 minus […] was measured using a microplate reader (SpectraMax Plus, Molecular Devices, Palo Alto, Calif.). HIF-1α concentrations were calculated by linear regression using a standard curve prepared from HIF-1α standard supplied with the ELISA kit.

Ramos cells [1] = assay: Cell cycle analysis (BrdU / 7-AAD), Ramos; assay type: cell-based; details: for Cell cycle distribution / progression: Ramos; for BrdU incorporation into DNA: comparison treatments
Method: Methods: […] Thirty minutes prior to harvest, cultures were treated with 5-bromo-2′-deoxyuridine (BrdU) at a final concentration of 10 μM. Cells were isolated by centrifugation, washing once with 0.5% BSA in PBS, and the resulting cell pellets fixed using 0.5 mL Cytofix/Cytoperm reagent (BD Biosciences). […] Cells were stained using a fluorescein-conjugated anti-BrdU antibody (clone PRB1, E-Bioscience, San Diego, Calif.) and 7-AAD. Cell cycle occupancy was analyzed by flow cytometry using fluorescein signal as a measure of DNA synthesis and 7-AAD signal as a measure of DNA content. […] L. Shepherd & Assoc., San Fernando, Calif.).

Thioredoxin reductase = assay: Lipoate reduction (thioredoxin reductase activity) in intact A549 cells; assay type: cell-based, human; details: A549; actinomycin D 2.5 μg/mL or cycloheximide 10 μg/mL 1 hour prior, BSO 100 μM 24 hours prior
Method: Methods: Lipoate Reduction. Thioredoxin reductase activity was assessed by measuring the rate of lipoate reduction. In brief, A549 or PC3 cells (10,000 cells/well) were plated on 96-well plates and allowed to adhere overnight and grow two additional days until confluent. Cells were treated with MGd, zinc, or 5% mannitol for 2-4 hours, as indicated. Medium was removed, cells were washed with Hanks Balanced Salt Solution (HBSS), and a solution of 5 mM lipoic acid and 1 mM 5,5′-dithiobis(2-nitrobenzoic acid) in HBSS (100 μL/well) was added. Plates were incubated at ambient temperature in the dark. At chosen time intervals, plate absorbance was measured at 405-650 nm. Plate absorbances were normalized to wells containing neither exogenous zinc nor texaphyrin complex to allow plate-to-plate comparison. In some experiments, L-buthionine-[S,R]-sulfoximine (BSO, 100 μM) was added 24 hours prior to MGd or zinc treatment, to inhibit any contribution to lipoate reduction made by glutathione-dependent pathways (28). Actinomycin D (2.5 μg/mL) or cycloheximide (10 μg/mL), where present, was added 1 hour prior to texaphyrin or zinc treatment. Viability was checked on parallel plates using the tetrazolium dye 3-(4,5-dimethylthiazol-2-yl)-5-(3-carboxymethoxyphenyl)-2-(4-sulfophenyl)-2H-tetrazolium (MTS) following the manufacturers protocol (Promega Corp.).

[2] = system: metallothionein gene family members and ZnT1; assay: Northern blot analysis, A549 cultures; assay type: cell-based, human; details: for Metallothionein transcript levels: A549, 24 hours, 50 μM MGd, Zn(OAc)2 100 μM, CdCl2 50 μM, FIG. 2B
Method: Methods: Northern Blot Analysis—Plateau phase cultures of A549 cells were prepared as described above, except that T-25 flasks were used, and the number of cells initially plated scaled accordingly. Cultures were treated with 50 μM MGd, 5 μM Gd(OAc)3 or 5% mannitol for 4 hours, whereupon cultures were washed twice with PBS and RNA harvested as above. Alternatively, 7-day plateau phase A549 or PC3 cultures were treated with 50 μM MGd, 50-100 μM Zn(OAc)2, 50 μM CdCl2 or 5% mannitol for 24 hours (A549) or 4 hours (PC3) prior to washing and RNA analysis. Exponential phase Ramos cultures were treated for 6 hours. Northern blots were conducted and analyzed. Radio labeled metallothionein probe, designed to bind to a 113-bp region of 3′-UTR sequences from multiple metallothionein gene family members, was generated using 5′-[…]-3′ (forward) and 5′-[…]-3′ (reverse) PCR primers and the NEBlot kit (New England Biolabs, Inc.). Radio labeled ZnT1 probe was generated in a similar fashion using 5′-[…]-3′ (forward) and 5′-[…]-3′ (reverse) primers.

A549 cells = assay: Cell viability by propidium iodide exclusion, A549; details: A549, 24 hours; Zn(OAc)2 100 μM, CdCl2 50 μM, MGd 50 μM
Method: Methods: Cellular Viability. Cell viability was determined by using propidium iodide (PI) flow cytometric analysis. Cells from plateau phase cultures grown in T-25 flasks were harvested as described above, except that cells present in the growth medium and wash solution were isolated by centrifugation and included in the analysis. Cells were resuspended in 1 mL PBS, an aliquot of 3×10^5 cells transferred to a 4 mL tube, and the cells isolated by centrifugation. Cell pellets were resuspended in PBS supplemented with 2 μg/mL propidium iodide (Sigma), incubated for 5 minutes at ambient temperature, and subjected to flow cytometric analysis. Flow cytometry was performed on a FACSCalibur instrument and data were analyzed using the CellQuest Pro software package (BD Biosciences).

Ramos cells [3] = assay: Intracellular free zinc (FluoZin-3 fluorescence), Ramos; assay type: cell-based; details: hydrogen peroxide treatment
Method: Methods: Intracellular Free Zinc. The concentration of intracellular free zinc was assessed using the ion-specific fluorescent probe, FluoZin-3-AM™ (FluoZin-3, Molecular Probes, Inc.). […] Following treatment, cells were isolated by centrifugation. Cell pellets were washed and re-suspended in a solution of 0.5% BSA in PBS.

Ramos cells [4] = assay: Reactive oxygen species (DCFA to DCF), Ramos; assay type: cell-based; details: single agents
Method: Methods: Reactive oxygen species were measured in live cells as intracellular peroxides by monitoring the oxidation of 2′,7′-dichlorofluorescin-diacetate (DCFA) to 2′,7′-dichlorofluorescein (DCF) (Molecular Probes). Cells (1×10^6 per mL) were incubated in a solution of 1 μg per mL DCFA in 0.5% BSA in HBSS for 15 minutes at 37° C. Two mL additional 0.5% BSA in HBSS was added, cells were isolated by centrifugation, and the pellet re-suspended in a solution of 50 μg/mL 7-aminoactinomycin D (7-AAD) in 0.5% BSA in HBSS. Cell suspensions were incubated at ambient temperature for 2 to 3 minutes, and stored on ice until analysis. The fluorescent intensity in live (i.e., 7-AAD impermeable) cells was analyzed by flow cytometry.

Question: With `CC(=O)[O-].CC(=O)[O-].[Co+2]` [cobalt acetate] as the compound, how does the “Increase in total cellular HIF-1α levels” value (HIF-1α) read?
Answer: Its value is “increased”.

Question: With `NC(=O)NO` [hydroxyurea] as the compound, how does the “Cell cycle distribution / progression” value (Ramos cells [1]) read?
Answer: Its value is “allowed passage through G2M”.

Question: And the “BrdU incorporation into DNA” value (Ramos cells [1])?
Answer: Its value is “inhibited BrdU incorporation”.

Question: Which “Effect of pre-treatment on the inhibition of lipoate reduction by MGd and zinc” value (Thioredoxin reductase) does the source give for `CCCCS(=N)(=O)CCC(N)C(=O)O` [BSO, L-buthionine-[S,R]-sulfoximine, reference compound] here?
Answer: The value was “increased the degree of inhibition”.

Question: With `CC(=O)[O-].CC(=O)[O-].CC(=O)[O-].[Gd+3]` [Gd(OAc)3, gadolinium acetate, reference compound] as the compound, how does the “Induction of metallothionein gene family members and ZnT1 (Northern blot)” value ([2]; A549 plateau phase, 4 hours, 50 μM MGd or 5 μM Gd(OAc)3) read?
Answer: The value was “induced only in cultures treated with MGd”.

Question: With `[Cl][Cd][Cl]` [CdCl2, reference compound] as the compound, how does the Metallothionein transcript levels [2] read?
Answer: Its Metallothionein transcript levels is “significant increase”.

Question: And the Metallothionein transcript levels ([2]; listed as cadmium)?
Answer: The Metallothionein transcript levels was “raised; also recorded: high levels of metallothionein transcription”.

Question: What about the “Cellular viability (propidium iodide exclusion)” value (A549 cells) of the same compound?
Answer: Its value is “ca. 53%”.

Question: Which “Effect of pre-treatment on the inhibition of lipoate reduction by MGd and zinc” value (Thioredoxin reductase) does the source give for `Cc1c2oc3c(C)ccc(C(=O)N[C@@H]4C(=O)N[C@H](C(C)C)C(=O)N5CCC[C@H]5C(=O)N(C)CC(=O)N(C)[C@@H](C(C)C)C(=O)O[C@@H]4C)c3nc-2c(C(=O)N[C@@H]2C(=O)N[C@H](C(C)C)C(=O)N3CCC[C@H]3C(=O)N(C)CC(=O)N(C)[C@@H](C(C)C)C(=O)O[C@@H]2C)c(N)c1=O` [actinomycin D, reference compound] (I: T[dV]P[Sar][NMeV] / II: T[dV]P[Sar][NMeV]; ester I:1-I:C, II:1-II:C; linker I:N-II:N via Actinocin(9to1)) here?
Answer: Its value is “restored the inhibitory effect”.

Question: With `O=c1[nH]c(=O)n([C@H]2C[C@H](O)[C@@H](CO)O2)cc1F` [5-fluoro-2′-deoxyuridine] as the compound, how does the “Cell cycle distribution / progression” value (Ramos cells [1]) read?
Answer: Its value is “accumulation of cells in G1/S”.

Question: And the “BrdU incorporation into DNA” value (Ramos cells [1])?
Answer: Its value is “permitted BrdU incorporation into DNA”.

Question: Which “Effect of pre-treatment on the inhibition of lipoate reduction by MGd and zinc” value (Thioredoxin reductase) does the source give for `C[C@@H]1C[C@@H]([C@H](O)CC2CC(=O)NC(=O)C2)C(=O)[C@@H](C)C1` [cycloheximide, reference compound] here?
Answer: The value was “restored the inhibitory effect”.

Question: With `OO` [hydrogen peroxide, reference compound] as the compound, how does the FluoZin-3 fluorescence (Ramos cells [3]) read?
Answer: Its FluoZin-3 fluorescence is “increased”.

Question: And the DCF signal (Ramos cells [4])?
Answer: The DCF signal was “increased”.
